Like-named read-outs stand apart in the source and are kept apart here.
Assay: Pharmacokinetic study in rats (oral gavage and tail vein injection, plasma LC-MS/MS)
Type: in vivo
Settings: rat; for Cmax: read-out: Cmax
Procedure: Male SPF-grade SD rats (Beijing Vital River Laboratory Animal Technology Co., Ltd.) with a body weight range of 200 to 250 g were used. After acclimatization, the rats were administered a clear solution of the compound of the present disclosure via oral gavage (Po, fasted overnight before administration with free access to water, food returned 4 hours after administration) and tail vein injection (Iv, free access to food and water throughout the administration). Blood samples were collected from the orbital venous plexus/jugular vein of rats at specified time points after administration (blood collection time points for the PO group: 0.167, 0.5, 1, 2, 4, 6, 8, and 24 h; for the IV group: 0.033, 0.167, 1, 2, 4, 6, 8, and 24 h). The concentration of compounds in plasma was detected by LC-MS/MS (AB SCIEX Qtrap4500). Data were analyzed using WinNonlin (version 5.2.1 Pharsight, Mountain View, CA) with a non-compartmental model to obtain PK parameters (including Cmax, C0, Tmax, AUClast, AUCinf, T1/2, etc.).
Table 3: Results of in vivo pharmacokinetic studies of compounds of the present disclosure in rats
The vehicle for the Po group compound was 5% DMSO + 5% ethanol + 60% PEG400 + 30% normal saline; the vehicle for the Iv group compound was 10% ethanol + 20% pure water + 70% PEG400 solution.

Compound	half-life (male, SD, iv, 1 mg/kg) [h]	half-life (male, SD, po, 1 mg/kg) [h]	AUC(0-t) (male, SD rats, Iv, 1 mg/kg) [ng·h/mL]	Cmax (male, SD rats, Iv, 1 mg/kg) [ng/mL]	AUC(0-t) (male, SD rats, Po, 1 mg/kg) [ng·h/mL]	Cmax (male, SD rats, Po, 1 mg/kg) [ng/mL]	AUC(0-t) (in vivo, SD rats, Iv, 1 mg/kg) [ng·h/mL]	Cmax (in vivo, SD rats, Iv, 1 mg/kg) [ng/mL]	half-life (in vivo, iv, 1 mg/kg, SD rats) [h]	other results
Cc1nc(-c2nnn(C)c2NC(=O)O[C@H](C)CC(C)(F)F)ccc1C#C[C@@H]1CC[C@H]1C(=O)O (mixture of isomers) [compound 213, trans-2-((6-(5-(((((R)-4,4-difluoropentan-2-yl)oxy)carbonyl)amino)-1-methyl-1H-1,2,3-triazol-4-yl)-2-methylpyridin-3-yl)ethynyl)cyclobutane-1-carboxylic acid]	10.4	9.97	5000 to 10000	800 to 5000	5000 to 10000	200 to 800				
CCC[C@@H](C)OC(=O)Nc1c(-c2ccc(C#C[C@@H]3C[C@H]3C(=O)O)c(C)n2)nnn1C (mixture of isomers) [compound 224, trans-2-((2-methyl-6-(1-methyl-5-(((((R)-pentan-2-yl)oxy)carbonyl)amino)-1H-1,2,3-triazol-4-yl)pyridin-3-yl)ethynyl)cyclopropane-1-carboxylic acid]	4.78	3.76	5000 to 10000	800 to 5000	5000 to 10000	800 to 5000				
Cc1nc(-c2nnn(C)c2NC(=O)OC(C)C23CC(C2)C3)ccc1C#CC1(CC(=O)O)CC1 (racemic) [compound 260]										AUC(0-t) (SD rats, Iv, 1 mg/kg): 5000 to 10000 ng·h/mL; half-life (SD rats, Iv, 1 mg/kg): 8.44 h; Cmax (SD rats, Iv, 1 mg/kg): 800 to 5000 ng/mL; AUC(0-t) (SD rats, Po, 1 mg/kg): 5000 to 10000 ng·h/mL; half-life (SD rats, Po, 1 mg/kg): 9.12 h; Cmax (SD rats, Po, 1 mg/kg): 200 to 800 ng/mL
Cc1nc(-c2nnn(C)c2COC(=O)N(C)CCC(C)(F)F)ccc1C#C[C@@H]1CCC[C@H]1C(=O)O (racemic) [compound 282, trans-2-((6-(5-((((3,3-difluorobutyl)(methyl)carbamoyl)oxy)methyl)-1-methyl-1H-1,2,3-triazol-4-yl)-2-methylpyridin-3-yl)ethynyl)cyclopentane-1-carboxylic acid]	6.07	4.58	1200 to 3000	800 to 5000	1200 to 3000	200 to 800				
Cc1nc(-c2nnn(C)c2NC(=O)OC(C)CC(C)(F)F)ccc1C#CC1(CC(=O)O)CC1 (racemic) [compound 311]										AUC(0-t) (SD rats, Iv, 1 mg/kg): 5000 to 10000 ng·h/mL; half-life (SD rats, Iv, 1 mg/kg): 9.33 h; Cmax (SD rats, Iv, 1 mg/kg): 800 to 5000 ng/mL; AUC(0-t) (SD rats, Po, 1 mg/kg): 3000 to 5000 ng·h/mL; half-life (SD rats, Po, 1 mg/kg): 8.49 h; Cmax (SD rats, Po, 1 mg/kg): 200 to 800 ng/mL
Cc1nc(-c2nnn(C)c2COC(=O)N(C)CCC(C)(F)F)ccc1C#CC1CCC1C(=O)O (racemic) [compound 359]							1200 to 3000	800 to 5000	7.63	AUC(0-t) (in vivo, SD rats, Po, 1 mg/kg): 1200 to 3000 ng·h/mL; Cmax (in vivo, SD rats, Po, 1 mg/kg): 200 to 800 ng/mL; half-life (in vivo, po, 1 mg/kg, SD rats): 6.24 h
Cc1nc(-c2nnn(C)c2COC(=O)N(C)CC2CCC2)ccc1C#CC1CC1C(=O)O (racemic) [compound 361]										AUC(0-t) (SD rats, Iv, 1 mg/kg): 1200 to 3000 ng·h/mL; half-life (SD rats, Iv, 1 mg/kg): 3.03 h; Cmax (SD rats, Iv, 1 mg/kg): 800 to 5000 ng/mL; AUC(0-t) (SD rats, Po, 1 mg/kg): 1200 to 3000 ng·h/mL; half-life (SD rats, Po, 1 mg/kg): 2.53 h; Cmax (SD rats, Po, 1 mg/kg): 200 to 800 ng/mL
Cc1nc(-c2nnn(C)c2NC(=O)OC(C)CCCF)ccc1C#CC1(CC(=O)O)CC1 (single isomer, unassigned) [280-B]							5000 to 10000	800 to 5000	6.47	AUC(0-t) (in vivo, SD rats, Po, 3 mg/kg): 10000 to 20000 ng·h/mL; Cmax (in vivo, SD rats, Po, 3 mg/kg): 800 to 5000 ng/mL; half-life (in vivo, po, 3 mg/kg, SD rats): 6.57 h
CCC[C@H](C)OC(=O)Nc1c(-c2ccc(C#CC3(CC(=O)O)CC3)c(C)n2)nnn1C [010-B]							5000 to 10000	800 to 5000	8.56	AUC(0-t) (in vivo, SD rats, Po, 3 mg/kg): 10000 to 20000 ng·h/mL; Cmax (in vivo, SD rats, Po, 3 mg/kg): 800 to 5000 ng/mL; half-life (in vivo, po, 3 mg/kg, SD rats): 6.85 h
CCC(F)(F)[C@@H](C)OC(=O)Nc1c(-c2ccc(C#CC3(CC(=O)O)CC(OC)C3)c(C)n2)nnn1C (stereo partly drawn) [compound 279]										AUC(0-t) (SD rats, Iv, 1 mg/kg): 5000 to 10000 ng·h/mL; half-life (SD rats, Iv, 1 mg/kg): 5.82 h; Cmax (SD rats, Iv, 1 mg/kg): 5000 to 8000 ng/mL; AUC(0-t) (SD rats, Po, 1 mg/kg): 5000 to 10000 ng·h/mL; half-life (SD rats, Po, 1 mg/kg): 6.39 h; Cmax (SD rats, Po, 1 mg/kg): 800 to 5000 ng/mL
Cc1nc(-c2nnn(C)c2NC(=O)OC(C)CCC(F)F)ccc1C#CC1(CC(=O)O)CC1 (stereo not drawn) [compound 283, 2-(1-((6-(5-((((5,5-difluoropentan-2-yl)oxy)carbonyl)amino)-1-methyl-1H-1,2,3-triazol-4-yl)-2-methylpyridin-3-yl)ethynyl)cyclopropyl)acetic acid]	7.36	6.9	5000 to 10000	800 to 5000	5000 to 10000	200 to 800				
Cc1nc(-c2nnn(C)c2NC(=O)OC(C)C23CC(F)(C2)C3)ccc1C#CC1(CC(=O)O)CC1 (stereo not drawn) [compound 285]			5000 to 10000	800 to 5000	3000 to 5000	200 to 800				half-life (male, SD rats, Iv, 1 mg/kg): 9.86 h; half-life (male, SD rats, Po, 1 mg/kg): 6.12 h
Cc1nc(-c2nnn(C)c2NC(=O)OC(C)CC(C)(F)F)ccc1C#CC1CC1C(=O)O (stereo not drawn) [compound 291]							5000 to 10000	800 to 5000	4.68	AUC(0-t) (in vivo, SD rats, Po, 1 mg/kg): 3000 to 5000 ng·h/mL; Cmax (in vivo, SD rats, Po, 1 mg/kg): 800 to 5000 ng/mL; half-life (in vivo, po, 1 mg/kg, SD rats): 5.15 h
Cc1nc(-c2nnn(C)c2NC(=O)O[C@H](C)c2ccccc2)ccc1C#C[C@@H]1C[C@H]1C(=O)O [compound 295]	3.46	3.49	5000 to 10000	800 to 5000	10000 to 20000	800 to 5000				
Cc1nc(-c2nnn(C)c2NC(=O)O[C@H](C)CC(C)(C)F)ccc1C#C[C@@H]1CC[C@H]1C(=O)O [compound 306]							3000 to 5000	800 to 5000	7.66	AUC(0-t) (in vivo, SD rats, Po, 1 mg/kg): 3000 to 5000 ng·h/mL; Cmax (in vivo, SD rats, Po, 1 mg/kg): 200 to 800 ng/mL; half-life (in vivo, po, 1 mg/kg, SD rats): 7.2 h
Cc1nc(-c2nnn(C)c2NC(=O)O[C@H](C)CCC(C)(F)F)ccc1C#CC1(CC(=O)O)CC1 [compound 314]							3000 to 5000	800 to 5000	8.42	AUC(0-t) (in vivo, SD rats, Po, 1 mg/kg): 5000 to 10000 ng·h/mL; Cmax (in vivo, SD rats, Po, 1 mg/kg): 200 to 800 ng/mL; half-life (in vivo, po, 1 mg/kg, SD rats): 6.41 h
CCCN(C)C(=O)OCc1c(-c2ccc(C#C[C@@H]3CCC[C@H]3C(=O)O)c(C)n2)nnn1C [compound 355]	6.65	5.53	1200 to 3000	800 to 5000	1200 to 3000	200 to 800				
CCCc1ccnc(NCc2c(-c3ccc(C#CC4(CC(=O)O)CC4)c(C)n3)nnn2C)n1 [compound 365]										AUC(0-t) (SD rats, Iv, 1 mg/kg): 1200 to 3000 ng·h/mL; half-life (SD rats, Iv, 1 mg/kg): 7.21 h; Cmax (SD rats, Iv, 1 mg/kg): 800 to 5000 ng/mL; AUC(0-t) (SD rats, Po, 1 mg/kg): 1200 to 3000 ng·h/mL; half-life (SD rats, Po, 1 mg/kg): 5.98 h; Cmax (SD rats, Po, 1 mg/kg): 200 to 800 ng/mL
